According to patent US9783518B2, “Therapeutic agent and treatment method for ameliorating uremia” (Toray Industries, Inc., priority 2005, dated 2017):

Key:
healthy cats = assay: Observation of general clinical symptoms (adverse events) after administration of beraprost sodium to healthy cats; format: in vivo, cat; design: key to grade of adverse events (diarrhea, vomiting, sedation) / grade of adverse events (vomiting, diarrhea, sedation): no abnormality observed (Grade 0); slight (Grade 1); moderate (Grade 2); severe (Grade 3); details: for adverse events (clinical symptoms): 5 healthy cats
Description: In this study, 3 male cats and 2 female cats, totally 5 Japanese cats, aging 3 to 6 years old were used, which were raised in an animal hospital and for which no abnormalities were observed clinically and by blood test. The subject cats were individually placed in each cage in which each cat was allowed to take water ad libitum, and each cat was fed twice a day after measuring the necessary items. For the purpose of acclimatization, the cats were measured for blood pressure noninvasively twice a day for 2 weeks.
Observations of general clinical symptoms caused by administration of beraprost sodium to healthy cats were performed as follows: Whether adverse events such as ataxia, sedation, lying, suffusion of visible mucosa, lacrimation, hypersalivation, vomiting, diarrhea, incontinence and change in respiratory conditions were expressed or not was observed. Observation was performed before administration, and 30 minutes, 1 hour, 2 hours and 3 hours after each administration during the continuous 7 days in which the drug was administered every day. Each evaluation was performed by rating in 4 ranks as follows: Respiratory conditions were ranked into: no abnormality observed (Grade 0); accelerated respiration (Grade 1); hypopnea (Grade 2); and dyspnea (Grade 3). Ataxia was ranked into: no abnormality observed (Grade 0); slight (Grade 1); moderate (Grade 2); and abasia (Grade 3). Sedation (response to verbal contact) and lying (response to verbal contact) were ranked into: no abnormality observed (Grade 0); slight (Grade 1); moderate (Grade 2); and no response (Grade 3). Evaluations of lacrimation, hypersalivation, vomiting, diarrhea and incontinence were ranked into: no abnormality observed (Grade 0); slight (Grade 1); moderate (Grade 2); and severe (Grade 3).
In each administration series, the same cat was used in each administration series as the subject cat for the correctness of the evaluation of the test drug. To eliminate the influence of the test drug of the previous series, wash out period of 2 weeks were given after the termination of the respective series. In the beraprost sodium administration series and the placebo administration series, the solution-containing capsules prepared in Example 2 were used. Administration was performed orally at fasting twice a day at intervals of 12 hours for continuous 7 days.
Statistical analysis was carried out using a statistical software Stat View J-4.5 (Abacus Concepts). Since the parameter values before and after the administration to the same individual are compared, significant test was carried out by the paired t-test. In any of the cases, when the significance level was less than 5%, it was judged as significant.

[1] = tested on: cats with chronic renal failure; assay: Adverse events during treatment of cats with chronic renal failure; format: in vivo, cat
Description: This pilot clinical test was performed after obtaining informed consent of the owners of the cats (clients) before the start of the test, wherein the clients received explanations about the fact that beraprost sodium had already been approved as a drug for human chronic artery obstruction and had already been marketed, and about the safety thereof. Further, giving first priority to the benefit of the patients and clients, conventional therapeutic methods were also combined appropriately for the individuals with progressed renal failure. Examples of the concomitant drugs employed include synthetic active carbons such as Covalzin, Kremezin and Nefguard; calcium preparations such as calcium carbonate; formula meals such as k/d and low-protein diets; and infusion solutions. However, in cases where there was a rational reason and consent by the owner was obtained, beraprost sodium alone was administered even to the individual with progressed renal failure. On the other hand, drugs thought to influence on the action of beraprost sodium, such as vasodilators (e.g., enalapril), diuretic (e.g., furosemide), drugs which influence on renal blood flow (e.g., dopamine) and steroids (e.g., prednisolone) were not used.
[…] The administration was conducted every day and continued basically for 6 months, and in cases where the owner desired, the administration was continued even after the test period. The Examples of the present invention include both cases where the dosing period was less than 6 months and more than 6 months.

[2] = tested on: dog with chronic renal failure; assay: Clinical score of uremic symptoms in dog with chronic renal failure (Case-H); format: in vivo
Description: Testing methods for the patients showing uremia caused by chronic renal failure, employed in Example 4 or later, will now be described. The criteria and evaluation items for the cats and dogs with chronic renal failure are as follows: Diagnosis of uremia and chronic renal failure were performed totally taking clinical findings (including findings of uremia) and the results of the blood test, blood biochemical analysis and urinalysis into consideration. As the clinical findings of uremia, existence and degree of polydipsia and diuresis, dehydration, anorexia, weight loss, vomiting symptom and state of dehydration were observed. Existence of chronic renal failure was judged based on the serum Cre value as generally employed. As reference data for grasping the degree of progress of chronic renal failure, BUN value was also monitored.
Evaluation of degree of improvement of the uremic symptoms was carried out as follows: From the clinical symptoms related to uremia, activity and appetite, which are unlikely to be overlooked and which can be observed universally from before to after the test period, were selected. […] The evaluation was carried out based on the total points (full points were 5 points). Thus, a higher point indicates more improvements in the clinical symptoms. […]

[3] = tested on: cats with chronic renal failure; assay: Blood biochemical analysis and urinalysis (BUN, serum Cre, glucose) in cats with chronic renal failure; format: in vivo, cat; details: Case-G; for Cre: 40 μg/head/BID
[4] = tested on: rats which spontaneously develops hypertension; details: administered together with saline and special diet; cited from earlier work
[5] = tested on: patients with diabetic nephropathy; details: cited from earlier work
[6] = tested on: patients with renal failure; details: renal failure in conservative stage; cited from earlier work

Question: What does the source list for `CC#CC[C@@H](C)[C@H](O)/C=C/[C@@H]1[C@H]2c3cccc(CCCC(=O)[O-])c3O[C@H]2C[C@H]1O.[Na+]` (mixture of isomers) [beraprost sodium, Sodium rac-(1R,2R,3aS,8bS)-2,3,3a,8b-tetrahydro-2-hydroxy-1-[(E)-(3S,4RS)-3-hydroxy-4-methyloct-1-en-6-ynyl]-1H-cyclopenta[b][1]benzofuran-5-butanoate]?
Answer: adverse events (clinical symptoms) (healthy cats; 10 μg/kg/BID oral, 7 days): not observed at all; adverse events (clinical symptoms) (healthy cats; 30 μg/kg/BID oral, 7 days): not observed at all; grade of adverse events (diarrhea, vomiting, sedation) (healthy cats; 70 μg/kg/BID oral, 7 days): Grade 1; cases with adverse events such as diarrhea, vomiting and sedation (healthy cats; 70 μg/kg/BID oral, 7 days, sporadic, 2 to 6 days after administration): 2/5; time of occurrence of adverse events after the administration (healthy cats; 100 μg/kg/BID oral): ≤ 2 h; grade of adverse events (vomiting, diarrhea, sedation) (healthy cats; 100 μg/kg/BID oral, 7 days): Grade 2; cats with vomiting, diarrhea and sedation (healthy cats; 100 μg/kg/BID oral, 7 days, from Day 2, frequent): all cats; reversibility of adverse events (healthy cats; 70 and 100 μg/kg/BID series, after 7 days): disappeared by the next day of the final administration; adverse events such as diarrhea, vomiting ([1]; Case-A, 150 μg oral BID, 6 months): no adverse event; adverse events ([1]; Case-B, daily administration continued for 1 and half years): no adverse event has been observed at all; adverse events such as diarrhea, vomiting ([1]; Case-C, 150 μg oral BID alone): no adverse event; adverse events such as diarrhea, vomiting ([1]; Case-D, 150 μg oral BID alone): no adverse event; adverse events such as diarrhea, vomiting ([1]; Case-E, 150 μg oral BID, combination therapy): no adverse event; adverse events such as diarrhea, vomiting ([1]; Case-F, 150 μg oral BID, combination therapy): no adverse event; adverse events such as diarrhea, vomiting ([1]; Case-G, 40 μg/head/BID): no adverse event; clinical score (full points 5) ([2]; 150 μg/capsule oral twice a day alone, first month, 3 points before): 4 points; uremic symptoms ([2]; after start of beraprost sodium alone): quickly remitted and ameliorated; BUN value ([3]; 40 μg/head/BID tablets alone): almost kept constant; Cre ([3]; Day 28): 2.79 mg/dL; Cre ([3]; Day 56): 3.02 mg/dL; onset of glomerulonephritis (urinary protein excretion, glomerulus tissue image) [4]: prevented; urinary microalbumin [5]: decreased; renal function (creatinine clearance or reciprocal of serum creatinine) [6]: reduced the decrease in renal function
